≈ marks a conversion by molar mass, not a printed value.
Columns and labels:
[1] = system: Escherichia coli; assay: In vitro antibacterial activity of compound towards Escherichia coli NIHJ JC-2; type: functional
[2] = system: P388; assay: In vitro cytotoxicity was measured towards murine lymphocytic leukemia P388 cells; type: functional, cell-based; settings: Mus musculus
[3] = system: Staphylococcus aureus; assay: In vitro antibacterial activity towards Staphylococcus aureus 209 JC-1; type: functional
[4] = system: Mus musculus; assay: In vivo antitumor activity against murine P388 leukemia measured as median survival of treated mice to that of control (T/C) at a dose of […]; type: functional
[5] = system: Mus musculus; assay: In vivo antitumor activity against murine P388 leukemia measured as median survival of treated mice to that of control (T/C) at a dose of 50 mg/kg; type: functional
[6] = system: A-427; assay: cells; type: functional, cell-based; settings: Homo sapiens
Description: Cytotoxic activity against human A-427 lung tumor cell line

[7] = system: AZ-521 cell line; assay: cells; type: functional, cell-based; settings: Homo sapiens
Description: Cytotoxic activity against human AZ-521 stomach tumor cell line

[8] = system: C-33-A; assay: Cytotoxic activity against human C-33A cervix tumor cell line; type: functional, cell-based
[9] = system: HMV-2 cell line; assay: Cytotoxic activity against human HMV-2 melanoma tumor cell line; type: functional, cell-based
[10] = system: KB; assay: Cytotoxic activity against human KB nasopha tumor cell line; type: functional, cell-based
[11] = system: MKN-45; assay: Cytotoxic activity against human MKN45 stomach tumor cell line; type: functional, cell-based
[12] = system: WiDr; assay: Cytotoxic activity against human WiDr colon tumor cell line; type: functional, cell-based

| SMILES | MIC [1] | MIC [3] | IC50 [2] | T/C [4] | T/C ([4]; dose […]) | T/C [5] | IC50 [6] | IC50 [7] | IC50 [8] | IC50 [9] | IC50 [10] | IC50 [11] | IC50 [12] | T/C ([4]; dose […] mg/kg, […]) |
| --- | --- | --- | --- | --- | --- | --- | --- | --- | --- | --- | --- | --- | --- | --- |
| NC(=O)c1cn(-c2nccs2)c2nc(N3CCC(N)C3)c(F)cc2c1=O (stereo not given) | > 100 µg/mL | > 100 µg/mL | 0.269 µg/mL (≈ 0.718 µM) |  |  |  |  |  |  |  |  |  |  |  |
| NC1CCN(c2nc3c(cc2F)c(=O)c(C(=O)O)cn3-c2nccs2)C1 (stereo not given) | 0.025 µg/mL (≈ 0.0666 µM) | 0.39 µg/mL (≈ 1.04 µM) | 0.0211 µg/mL (≈ 0.0562 µM) | 150% | 213% | >375% |  |  |  |  |  |  |  |  |
| CN[C@H]1CN(c2nc3c(cc2F)c(=O)c(C=O)cn3-c2nccs2)C[C@@H]1OC | 100 µg/mL (≈ 248 µM) | 12.5 µg/mL (≈ 31 µM) | 0.0309 µg/mL (≈ 0.0766 µM) | 188% | 250% | 325% | 0.0749 µg/mL (≈ 0.186 µM) | 0.0307 µg/mL (≈ 0.0761 µM) | 0.161 µg/mL (≈ 0.399 µM) | 0.214 µg/mL (≈ 0.53 µM) | 0.179 µg/mL (≈ 0.444 µM) | 0.144 µg/mL (≈ 0.357 µM) | 0.264 µg/mL (≈ 0.654 µM) |  |
| NC1CCN(c2nc3c(cc2F)c(=O)c(Cc2ccccc2)cn3-c2nccs2)C1 (stereo not given) | 100 µg/mL (≈ 237 µM) | 50 µg/mL (≈ 119 µM) | 0.0178 µg/mL (≈ 0.0422 µM) |  |  |  |  |  |  |  |  |  |  |  |
| COc1cc([C@@H]2c3cc4c(cc3[C@@H](O[C@@H]3O[C@@H]5CO[C@@H](C)O[C@H]5[C@H](O)[C@H]3O)[C@H]3COC(=O)[C@H]23)OCO4)cc(OC)c1O [ETOPOSIDE] |  |  |  | 175% |  | >375% |  | 0.08 µg/mL (≈ 0.136 µM) | 0.084 µg/mL (≈ 0.143 µM) | 0.298 µg/mL (≈ 0.506 µM) | 0.201 µg/mL (≈ 0.342 µM) | 0.49 µg/mL (≈ 0.833 µM) | 1.63 µg/mL (≈ 2.77 µM) | 250% |

Further lines, with some results ahead:

| MIC [1] | MIC [3] | SMILES | IC50 [2] | T/C [4] | T/C ([4]; dose […]) | T/C [5] | IC50 [6] | IC50 [7] | IC50 [8] | IC50 [9] | IC50 [10] | IC50 [11] | IC50 [12] | T/C ([4]; dose […] mg/kg, […]) |
| --- | --- | --- | --- | --- | --- | --- | --- | --- | --- | --- | --- | --- | --- | --- |
| 0.78 µg/mL (≈ 2.25 µM) | 50 µg/mL (≈ 144 µM) | NC1CCN(c2nc3c(cc2F)c(=O)c(O)cn3-c2nccs2)C1 (stereo not given) | 0.168 µg/mL (≈ 0.484 µM) |  |  |  |  |  |  |  |  |  |  |  |
| 12.5 µg/mL (≈ 31 µM) | 50 µg/mL (≈ 124 µM) | CCOC(=O)c1cn(-c2nccs2)c2nc(N3CCC(N)C3)c(F)cc2c1=O (stereo not given) | 0.136 µg/mL (≈ 0.337 µM) |  |  |  |  |  |  |  |  |  |  |  |

Reference: ChEMBL document CHEMBL1146645, “Synthesis and structure-activity relationships of 3-substituted 1,4-dihydro-4-oxo-1-(2-thiazolyl)-1,8-naphthyridines as novel antitumor agents” (Bioorg Med Chem Lett, 2004)
